Source: EPA's ToxValDB 9.5 (doi:10.2903/j.efsa.2010.1389)
Values after ≈ are worked out from the molar mass of the structure shown.

Columns and labels:
Apis mellifera = conditions: acute; duration: 48 hours; dermal; mortality
Bibionidae = conditions: chronic/long-term; duration: 28 days; development
Daphnia magna = conditions: chronic/long-term; duration: 21 days; reproduction
Hypoaspis aculeifer = conditions: chronic/long-term; duration: 14 days
Lepomis macrochirus = conditions: acute; duration: 96 hours; mortality
Typhlodromus pyri = assay: LR50; higher = less toxic; conditions: acute; duration: 7 days; mortality

CC(C)Oc1cc(-n2nc(C(C)(C)C)oc2=O)c(Cl)cc1Cl [Oxadiazon]
NOEC (Anas platyrhynchos; reproductive): 106 mg/kg-day | LC50 (Anas platyrhynchos; short-term, oral, feed, mortality): > 1140 mg/kg-day | LD50 (Apis mellifera): > 100 µg/piece | NOEC (Bibionidae): 5 mg/L | LC50 (Colinus virginianus; acute, oral, diet, mortality): > 730 mg/kg-day | LD50 (Colinus virginianus; acute, oral, mortality): > 2150 mg/kg-day | NOEC (Colinus virginianus; reproduction developmental): 90.8 mg/kg-day | NOEC (Daphnia magna): 0.03 mg/L | NOEC (Hypoaspis aculeifer): 339 mg/kg | LC50 (Lepomis macrochirus): 1.2 µg/mL (≈ 3.48 µM) | LC50 (Oncorhynchus mykiss; acute, duration: 96 hours, mortality): 1.2 µg/mL (≈ 3.48 µM) | NOEC (Oncorhynchus mykiss; chronic/long-term, duration: 60 days, other): 0.00088 mg/L | LD50 (Rattus norvegicus; acute, oral, mortality): > 5000 mg/kg-day | NOAEL (Rattus norvegicus; chronic): 15 mg/kg-day | NOAEL (Rattus norvegicus; chronic, duration: 2 years, organ weight): 0.36 mg/kg-day | NOAEL (Rattus norvegicus; developmental, development): 12 mg/kg-day | NOAEL (Rattus norvegicus; reproduction developmental, reproduction): 5 mg/kg-day | LC50 (Tagia sp.; acute, duration: 14 days, mortality): > 1000 mg/kg | NOEC (Tagia sp.; chronic/long-term, duration: 8 weeks, reproduction): 133 mg/kg | LR50 (Typhlodromus pyri): 150 g/ha
